# Test results taken from PubChem BioAssay (NCI).
#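 Interpolation was linear, between the two tested concentrations surrounding the appropriate level; five concentrations were tested over 48 hours in 96-well plates. GI50 = concentration required for 50% inhibition of growth. TGI: concentration producing complete growth inhibition.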
# Experiments:
# Experiment in all cases: NCI tumour cell line growth inhibition, 48 h
# UO-31 renal = system: UO-31 renal
# 786-0 renal = system: 786-0 renal
# OVCAR-5 ovarian = system: OVCAR-5 ovarian
# HCC-2998 colon = system: HCC-2998 colon
# SW-620 colon = system: SW-620 colon
# HOP-92 NSCLC = system: HOP-92 NSCLC
# CAKI-1 renal = system: CAKI-1 renal
# ACHN renal = system: ACHN renal
# HCT-15 colon = system: HCT-15 colon
# UACC-257 melanoma = system: UACC-257 melanoma
# HL-60(TB) leukemia = system: HL-60(TB) leukemia
# SF-295 CNS = system: SF-295 CNS
# OVCAR-3 ovarian = system: OVCAR-3 ovarian
# MCF7 breast = system: MCF7 breast
# DU-145 prostate = system: DU-145 prostate
# KM12 colon = system: KM12 colon
# TK-10 renal = system: TK-10 renal
# COLO 205 colon = system: COLO 205 colon
# NCI-H522 lung = system: NCI-H522 lung
# A498 renal = system: A498 renal
# IGROV1 ovarian = system: IGROV1 ovarian
# HS 578T breast = system: HS 578T breast
# NCI-H460 lung = system: NCI-H460 lung
# MDA-MB-231 breast = system: MDA-MB-231 breast
# SK-MEL-5 melanoma = system: SK-MEL-5 melanoma
# PC-3 prostate = system: PC-3 prostate
# MALME-3M melanoma = system: MALME-3M melanoma
# SF-539 CNS = system: SF-539 CNS
# EKVX NSCLC = system: EKVX NSCLC
# SK-MEL-2 melanoma = system: SK-MEL-2 melanoma
# K-562 leukemia = system: K-562 leukemia
# SNB-19 CNS = system: SNB-19 CNS
# SK-MEL-28 melanoma = system: SK-MEL-28 melanoma
# SF-268 CNS = system: SF-268 CNS
# MOLT-4 leukemia = system: MOLT-4 leukemia
# SN12C renal = system: SN12C renal
# SR leukemia = system: SR leukemia
# T-47D breast = system: T-47D breast
# BT-549 breast = system: BT-549 breast
# MDA-MB-435 = system: MDA-MB-435
# OVCAR-8 ovarian = system: OVCAR-8 ovarian
# OVCAR-4 ovarian = system: OVCAR-4 ovarian
# U251 CNS = system: U251 CNS
# NCI-H23 lung = system: NCI-H23 lung
# A549 NSCLC = system: A549 NSCLC
# HT29 colon = system: HT29 colon
# SNB-75 CNS = system: SNB-75 CNS
# CCRF-CEM leukemia = system: CCRF-CEM leukemia
# HOP-62 NSCLC = system: HOP-62 NSCLC
# LOX IMVI melanoma = system: LOX IMVI melanoma
# M14 melanoma = system: M14 melanoma
# NCI-H226 lung = system: NCI-H226 lung
# HCT-116 colon = system: HCT-116 colon
# SK-OV-3 ovarian = system: SK-OV-3 ovarian
# UACC-62 melanoma = system: UACC-62 melanoma
# RXF 393 renal = system: RXF 393 renal
# RPMI-8226 leukemia = system: RPMI-8226 leukemia
# NCI/ADR-RES ovarian = system: NCI/ADR-RES ovarian
smiles,measurement,setting,value
CN1CCN(Cc2ccc(NC(=O)c3cncc(C#Cc4cnc5ccc(Cl)nn45)c3)cc2C(F)(F)F)CC1,GI50,UO-31 renal,1.28 µM
same,TGI,UO-31 renal,3.36 µM
same,GI50,786-0 renal,1.01 µM
same,TGI,786-0 renal,1.85 µM
same,GI50,OVCAR-5 ovarian,0.83 µM
same,TGI,OVCAR-5 ovarian,3.55 µM
same,GI50,HCC-2998 colon,0.949 µM
same,TGI,HCC-2998 colon,2.66 µM
same,GI50,SW-620 colon,0.631 µM
same,TGI,SW-620 colon,3.66 µM
same,GI50,HOP-92 NSCLC,0.454 µM
same,TGI,HOP-92 NSCLC,3.63 µM
same,GI50,CAKI-1 renal,1 µM
same,TGI,CAKI-1 renal,4.63 µM
same,GI50,ACHN renal,0.769 µM
same,TGI,ACHN renal,2.94 µM
same,GI50,HCT-15 colon,0.901 µM
same,TGI,HCT-15 colon,3.36 µM
same,GI50,UACC-257 melanoma,1.21 µM
same,TGI,UACC-257 melanoma,4.13 µM
same,GI50,HL-60(TB) leukemia,0.318 µM
same,TGI,HL-60(TB) leukemia,1.47 µM
same,GI50,SF-295 CNS,1.38 µM
same,TGI,SF-295 CNS,5.32 µM
same,GI50,OVCAR-3 ovarian,1.58 µM
same,TGI,OVCAR-3 ovarian,4 µM
same,GI50,MCF7 breast,0.287 µM
same,TGI,MCF7 breast,1.92 µM
same,GI50,DU-145 prostate,1.18 µM
same,TGI,DU-145 prostate,4.38 µM
same,GI50,KM12 colon,0.005 µM
same,TGI,KM12 colon,2.13 µM
same,GI50,TK-10 renal,1.64 µM
same,TGI,TK-10 renal,4.46 µM
same,GI50,COLO 205 colon,0.688 µM
same,TGI,COLO 205 colon,2.08 µM
same,GI50,NCI-H522 lung,0.878 µM
same,TGI,NCI-H522 lung,2.78 µM
same,GI50,A498 renal,1.12 µM
same,TGI,A498 renal,2.6 µM
same,GI50,IGROV1 ovarian,0.889 µM
same,TGI,IGROV1 ovarian,3.54 µM
same,GI50,HS 578T breast,0.886 µM
same,TGI,HS 578T breast,3.29 µM
same,GI50,NCI-H460 lung,0.871 µM
same,TGI,NCI-H460 lung,2.06 µM
same,GI50,MDA-MB-231 breast,0.567 µM
same,TGI,MDA-MB-231 breast,2.3 µM
same,GI50,SK-MEL-5 melanoma,0.849 µM
same,TGI,SK-MEL-5 melanoma,1.59 µM
same,GI50,PC-3 prostate,1.2 µM
same,TGI,PC-3 prostate,5.24 µM
same,GI50,MALME-3M melanoma,0.495 µM
same,TGI,MALME-3M melanoma,1.23 µM
same,GI50,SF-539 CNS,0.54 µM
same,TGI,SF-539 CNS,1.21 µM
same,GI50,EKVX NSCLC,0.91 µM
same,TGI,EKVX NSCLC,2.34 µM
same,GI50,SK-MEL-2 melanoma,0.744 µM
same,TGI,SK-MEL-2 melanoma,1.98 µM
same,GI50,K-562 leukemia,0.005 µM
same,TGI,K-562 leukemia,2.96 µM
same,GI50,SNB-19 CNS,1.78 µM
same,TGI,SNB-19 CNS,4.89 µM
same,GI50,SK-MEL-28 melanoma,0.918 µM
same,TGI,SK-MEL-28 melanoma,2.59 µM
same,GI50,SF-268 CNS,1.25 µM
same,TGI,SF-268 CNS,2.83 µM
same,GI50,MOLT-4 leukemia,0.682 µM
same,TGI,MOLT-4 leukemia,3.89 µM
same,GI50,SN12C renal,0.969 µM
same,TGI,SN12C renal,3.48 µM
same,GI50,SR leukemia,0.975 µM
same,TGI,SR leukemia,6.1 µM
same,GI50,T-47D breast,1.41 µM
same,TGI,T-47D breast,6.58 µM
same,GI50,BT-549 breast,1.45 µM
same,TGI,BT-549 breast,3.85 µM
same,GI50,MDA-MB-435,0.736 µM
same,TGI,MDA-MB-435,2.09 µM
same,GI50,OVCAR-8 ovarian,1.46 µM
same,TGI,OVCAR-8 ovarian,5.27 µM
same,GI50,OVCAR-4 ovarian,0.453 µM
same,TGI,OVCAR-4 ovarian,3.66 µM
same,GI50,U251 CNS,1.22 µM
same,TGI,U251 CNS,4.34 µM
same,GI50,NCI-H23 lung,0.751 µM
same,TGI,NCI-H23 lung,2.18 µM
same,GI50,A549 NSCLC,1.28 µM
same,TGI,A549 NSCLC,4.29 µM
same,GI50,HT29 colon,0.747 µM
same,TGI,HT29 colon,5.71 µM
same,GI50,SNB-75 CNS,0.972 µM
same,TGI,SNB-75 CNS,2.1 µM
same,GI50,CCRF-CEM leukemia,1.29 µM
same,TGI,CCRF-CEM leukemia,4.84 µM
same,GI50,HOP-62 NSCLC,1.27 µM
same,TGI,HOP-62 NSCLC,3.73 µM
same,GI50,LOX IMVI melanoma,0.757 µM
same,TGI,LOX IMVI melanoma,1.6 µM
same,GI50,M14 melanoma,0.59 µM
same,TGI,M14 melanoma,1.34 µM
same,GI50,NCI-H226 lung,0.507 µM
same,TGI,NCI-H226 lung,2.7 µM
same,GI50,HCT-116 colon,0.259 µM
same,TGI,HCT-116 colon,1.34 µM
same,GI50,SK-OV-3 ovarian,1.75 µM
same,TGI,SK-OV-3 ovarian,4.96 µM
same,GI50,UACC-62 melanoma,0.925 µM
same,TGI,UACC-62 melanoma,2.4 µM
same,GI50,RXF 393 renal,0.828 µM
same,TGI,RXF 393 renal,1.77 µM
same,GI50,RPMI-8226 leukemia,0.954 µM
same,TGI,RPMI-8226 leukemia,2.69 µM
same,GI50,NCI/ADR-RES ovarian,1.59 µM
same,TGI,NCI/ADR-RES ovarian,5.24 µM
